Source: PMC8979220 (RSC Advances, 2022)
≈ marks a conversion by molar mass, not a printed value.

Molecular target: acetylcholinesterase (acetyl cholinesterase)
Test: in vitro AChE inhibition assay
Assay type: biochemical, Electrophorus electricus

SMILES	IC50 (μg ml^-1) ± SEM
O=C1C(=O)N(CCOc2ccc(Cl)cc2)c2ccc(Br)cc21 [PI10, 5-Bromo-1-(2-(4-chlorophenoxy)ethyl)indoline-2,3-dione]	0.98 ± 0.055 µg/mL (≈ 2.57 µM)
O=C1C(=O)N(CCOc2ccc(F)cc2)c2ccc(Br)cc21 [PI12, 5-Bromo-1-(2-(4-fluorophenoxy)ethyl)indoline-2,3-dione]	1.31 ± 0.083 µg/mL (≈ 3.6 µM)
O=C1C(=O)N(CCOc2ccc(Br)cc2)c2ccc(Br)cc21 [PI11, 5-Bromo-1-(2-(4-bromophenoxy)ethyl)indoline-2,3-dione]	1.14 ± 0.013 µg/mL (≈ 2.68 µM)
O=C1C(=O)N(CCOc2ccccc2)c2ccccc21 [PI1, 1-(2-Phenoxyethyl)indoline-2,3-dione]	0.52 ± 0.073 µg/mL (≈ 1.95 µM)
O=C1C(=O)N(CCOc2ccc(F)cc2)c2ccccc21 [PI4, 1-(2-(4-Fluorophenoxy)ethyl)indoline-2,3-dione]	0.68 ± 0.011 µg/mL (≈ 2.38 µM)
O=C1C(=O)N(CCOc2ccc(Cl)cc2)c2ccc(Cl)cc21 [PI6, 5-Chloro-1-(2-(4-chlorophenoxy)ethyl)indoline-2,3-dione]	0.91 ± 0.015 µg/mL (≈ 2.71 µM)
O=C1C(=O)N(CCOc2ccc(Cl)cc2)c2ccccc21 [PI2, 1-(2-(4-Chlorophenoxy)ethyl)indoline-2,3-dione]	0.72 ± 0.012 µg/mL (≈ 2.39 µM)
O=C1C(=O)N(CCOc2ccccc2)c2ccc(Br)cc21 [PI9, 5-Bromo-1-(2-phenoxyethyl)indoline-2,3-dione]	0.91 ± 0.083 µg/mL (≈ 2.63 µM)
